Assay [1] can be described thus: Sucrose self-administration. Format: in vivo. The following applies: pretreatment (±)-29 15 and 25 mg/kg, (±)-19 1 and 5 mg/kg.
The next assay concerns the target T1, human D2R (Homo sapiens, UniProt P14416).
T1 construct: expressed in transfected cells; host or cells: HEK293
The experiment in a line: Radioligand competition binding, [3H]N-methylspiperone, D2R. The following applies: Table 1A; ratio of Ki values. How it is done:
Binding at dopamine D2-like receptors was determined using previously described methods. (Chen et al. “Tranylcypromine substituted cis-hydroxycyclobutylnaphthamides as potent and selective dopamine D(3) receptor antagonists.” J. Med. Chem. 2014, 57, 4962-4968) Membranes were prepared from HEK293 cells expressing human D2R, D3R or D4R, grown in a 50:50 mix of DMEM and Ham's F12 culture media, supplemented with 20 mM HEPES, 2 mM L-glutamine, 0.1 mM non-essential amino acids, 1× antibiotic/antimycotic, 10% heat-inactivated fetal bovine serum, and 200 μg/mL hygromycin (Life Technologies, Grand Island, NY) and kept in an incubator at 37° C. and 5% CO2. Upon reaching 80-90% confluence, cells were harvested using pre-mixed Earle's Balanced Salt Solution (EBSS) with 5 μM EDTA (Life Technologies) and centrifuged at 3000 rpm for 10 min at 21° C. The supernatant was removed and the pellet was resuspended in 10 mL hypotonic lysis buffer (5 mM MgCl2·6H2O, 5 mM Tris, pH 7.4 at 4° C.) and centrifuged at 20,000 rpm for 30 min at 4° C. The pellet was then resuspended in fresh EBSS buffer made from 8.7 g/L Earle's Balanced Salts without phenol red (US Biological, Salem, MA), 2.2 g/L sodium bicarbonate, pH to 7.4. A Bradford protein assay (Bio-Rad, Hercules, CA) was used to determine the protein concentration and membranes were diluted to 500 μg/mL and stored in a −80° C. freezer for later use.
(§1) Radioligand competition binding experiments were conducted using thawed membranes. Test compounds were freshly dissolved in 30% DMSO and 70% H2O to a stock concentration of 100 μM. To assist the solubilization of free-base compounds, 10 μl of glacial acetic acid was added along with the DMSO. Each test compound was then diluted into 13 half-log serial dilutions using 30% DMSO vehicle; final test concentrations ranged from 10 μM to 10 pM. Previously frozen membranes were diluted in fresh EBSS to a 100 μg/mL (for hD2R or hD3R) or 200 μg/mL (hD4R) stock for binding. Radioligand competition experiments were conducted in glass tubes containing 300 μl fresh EBSS buffer with 0.2 mM sodium metabisulfite, 50 μl of diluted test compound, 100 μl of membranes (10 μg total protein for hD2R or hD3R, 20 μg total protein for hD4R), and 50 μl of [^3H]N-methylspiperone (0.4 nM final concentration; Perkin Elmer). Nonspecific binding was determined using 10 μM butaclamol (Sigma-Aldrich, St. Louis, MO) and total binding was determined with 30% DMSO vehicle. All compound dilutions were tested in triplicate and the reaction incubated for one hour at room temperature. The reaction was terminated by filtration through Whatman GF/B filters, presoaked for one hour in 0.5% polyethylenimine, using a Brandel R48 filtering manifold (Brandel Instruments, Gaithersburg, MD). The filters were washed 3 times with 3 mL of ice cold EBSS buffer and transferred to scintillation vials. 3 mL CytoScint liquid scintillation cocktail (MP Biomedicals, Solon, OH) was added and vials were counted using a Perkin Elmer Tri-Carb 2910 TR liquid scintillation counter (Waltham, MA). IC50 values for each compound were determined from dose-response curves and Ki values were calculated using the Cheng-Prusoff equation; these analyses were performed using GraphPad Prism version 5.00 for Windows (GraphPad Software, San Diego, CA). Reported Ki values were determined from least three independent experiments.
On the technique in general: Loss of bound radioactivity is the signal in a displacement assay; it reports binding, not function.

Another assay has as its target T2, human D3R (Homo sapiens, UniProt P35462).
T2 construct: expressed in transfected cells; host or cells: HEK293
Nature of the assay: Radioligand competition binding, [3H]N-methylspiperone, D3R. The following applies: Table 1A; for D4/D3: ratio of Ki values; for D3R K ± SEM (nM): HEK 293 cells transfected with hD3R, [3H]N-methylspiperone. How it is done:
Binding at dopamine D2-like receptors was determined using previously described methods. […] Upon reaching 80-90% confluence, cells were harvested using pre-mixed Earle's Balanced Salt Solution (EBSS) with 5 μM EDTA (Life Technologies) and centrifuged at 3000 rpm for 10 min at 21° C. The supernatant was removed and the pellet was resuspended in 10 mL hypotonic lysis buffer (5 mM MgCl2·6H2O, 5 mM Tris, pH 7.4 at 4° C.) and centrifuged at 20,000 rpm for 30 min at 4° C. The pellet was then resuspended in fresh EBSS buffer made from 8.7 g/L Earle's Balanced Salts without phenol red (US Biological, Salem, MA), 2.2 g/L sodium bicarbonate, pH to 7.4. A Bradford protein assay (Bio-Rad, Hercules, CA) was used to determine the protein concentration and membranes were diluted to 500 μg/mL and stored in a −80° C. freezer for later use.
as §1, with “3 mL CytoScint liquid scintillation cocktail (MP Biomedicals, Solon, OH) was added and vials were counted using a Perkin Elmer Tri-Carb 2910 TR liquid scintillation counter (Waltham, MA).” left out

In the next assay the target is T3, human dopamine D3R (Homo sapiens, UniProt P35462).
T3 construct: expressed in transfected cells; host or cells: CHO
T3 sequence (P35462 whole entry): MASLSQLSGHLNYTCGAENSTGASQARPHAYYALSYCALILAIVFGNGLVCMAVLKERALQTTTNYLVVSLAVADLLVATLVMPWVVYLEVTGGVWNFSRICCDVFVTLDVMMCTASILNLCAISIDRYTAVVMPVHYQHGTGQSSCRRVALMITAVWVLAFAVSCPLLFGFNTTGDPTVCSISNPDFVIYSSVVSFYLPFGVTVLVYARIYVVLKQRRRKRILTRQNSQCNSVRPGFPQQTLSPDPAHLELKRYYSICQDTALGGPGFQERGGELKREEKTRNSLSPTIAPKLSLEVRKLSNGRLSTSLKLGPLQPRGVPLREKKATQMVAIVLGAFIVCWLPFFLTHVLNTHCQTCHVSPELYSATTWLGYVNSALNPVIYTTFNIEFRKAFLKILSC
The experiment in a line: D3R mitogenesis assay in CHO cells. In kind it is cell-based. The following applies: stimulation of mitogenesis, CHO cells with human D3R; read-out: Agonist EC50 ± SEM.

Bounds are passed on as bounds.

T2 sequence (P35462 whole entry): as above
T1 sequence (P14416 whole entry): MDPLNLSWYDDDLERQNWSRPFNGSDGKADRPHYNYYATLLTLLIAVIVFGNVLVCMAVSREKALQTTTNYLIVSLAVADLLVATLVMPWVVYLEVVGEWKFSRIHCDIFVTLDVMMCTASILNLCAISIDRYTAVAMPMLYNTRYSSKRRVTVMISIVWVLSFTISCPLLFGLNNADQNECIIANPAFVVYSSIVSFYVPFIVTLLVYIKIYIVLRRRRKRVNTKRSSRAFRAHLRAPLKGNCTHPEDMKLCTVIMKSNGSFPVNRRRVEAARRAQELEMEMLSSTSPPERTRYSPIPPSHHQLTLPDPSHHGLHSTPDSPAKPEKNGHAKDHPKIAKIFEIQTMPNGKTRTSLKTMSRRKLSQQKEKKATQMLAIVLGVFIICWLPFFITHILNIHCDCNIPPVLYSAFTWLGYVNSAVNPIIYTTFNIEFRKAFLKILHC

In the case of `CCc1cccc(N2CCN(CC(O)CCNC(=O)c3cc4ccccc4[nH]3)CC2)c1Cl` (racemic) [Compound 19, N-(4-(4-(2-chloro-3-ethylphenyl)piperazin-1-yl)-3-hydroxybutyl)-1H-indole-2-carboxamide], the sucrose self-administration result in assay [1] is “no significant effects on sucrose self-administration”.
With `CCc1cccc(N2CCN(CCCCNC(=O)c3cc4ccccc4[nH]3)CC2)c1Cl` [Compound 18, N-(4-(4-(2-Chloro-3-ethylphenyl)piperazin-1-yl)butyl)-1H-indole-2-carboxamide], the D4/D2 on human D2R is on record as 61. The D4/D3 on human D3R turned out to be 2352.
For the compound `CCc1cccc(N2CCN(CCCCNC(=O)c3cc4ccccc4o3)CC2)c1Cl` [Compound 20, N-(4-(4-(2-Chloro-3-ethylphenyl)piperazin-1-yl)butyl)benzofuran-2-carboxamide], the D4/D2 at human D2R was 56. For the same compound, on human D3R, the “D3R K ± SEM (nM)” value was “subnanomolar binding affinities” and the D4/D3 came out at 2327.
For the compound `CCc1cccc(N2CCN(CC(O)CCNC(=O)c3cc4ccccc4o3)CC2)c1Cl` (stereo not drawn) [Compound 21, N-(4-(4-(2-Chloro-3-ethylphenyl)piperazin-1-yl)-3-hydroxybutyl)benzofuran-2-carboxamide], the D4/D2 at human D2R is 15. Also, at human D3R, the “D3R K ± SEM (nM)” value was “subnanomolar binding affinities” and the D4/D3 is 2417.
With `CCc1cccc(N2CCN(CCCCNC(=O)c3cn4ccccc4n3)CC2)c1Cl` [Compound 22, N-(4-(4-(2-chloro-3-ethylphenyl)piperazin-1-yl)butyl)imidazo[1,2-a]pyridine-2-carboxamide], the D4/D2 on human D2R came out at 145.2. Also, the D4/D3 on human D3R was determined as 2482.
For `CCc1cccc(N2CCN(CC(O)CCNC(=O)c3cn4ccccc4n3)CC2)c1Cl` (stereo not drawn) [Compound 23, N-(4-(4-(2-Chloro-3-ethylphenyl)piperazin-1-yl)-3-hydroxybutyl)imidazo[1,2-a]pyridine-2-carboxamide] the same measures were 58.5 and 2671.
For `CCc1cccc(N2CCN(CCCCNC(=O)c3c(C)nc4sccn34)CC2)c1Cl` [Compound 24, N-(4-(4-(2-chloro-3-ethylphenyl)piperazin-1-yl)butyl)-6-methylimidazo[2,1-b]thiazole-5-carboxamide] the same measures were 30.8 and 152.
Regarding `CCc1c[nH]c(C(=O)NCCCCN2CCN(c3cccc(CC)c3Cl)CC2)n1` [Compound 25, N-(4-(4-(2-Chloro-3-ethylphenyl)piperazin-1-yl)butyl)-4-ethyl-1H-imidazole-2-carboxamide], the D4/D2 on human D2R is listed as 40.0. The D4/D3 at human D3R worked out at 439.
For `CCc1cccc(N2CCN(CCCCNC(=O)c3nc(C)c[nH]3)CC2)c1Cl` [Compound 26, N-(4-(4-(2-Chloro-3-ethylphenyl)piperazin-1-yl)butyl)-4-methyl-1H-imidazole-2-carboxamide] the same measures were 43.4 and 853.
With `CCc1cccc(N2CCN(CC(O)CCNC(=O)c3nc(C)c[nH]3)CC2)c1Cl` (stereo not drawn) [Compound 27, N-(4-(4-(2-Chloro-3-ethylphenyl)piperazin-1-yl)-3-hydroxybutyl)-4-methyl-1H-imidazole-2-carboxamide], on human D2R, the D4/D2 was 13.1. Besides, the D4/D3 at human D3R came out at 175.
By EC50 is commonly meant the concentration that produces a half-maximal response. As for `CCc1cc(Cl)c(OC)c(N2CCN(CCCCNC(=O)c3cc4ccccc4[nH]3)CC2)c1` [Compound 28, N-(4-(4-(3-Chloro-5-ethyl-2-methoxyphenyl)piperazin-1-yl)butyl)-1H-indole-2-carboxamide], the D4/D2 at human D2R turned out to be 38. Besides, the D4/D3 on human D3R is recorded as 3065. The EC50 on human dopamine D3R is above 8.3 µM.
For `CCc1cc(Cl)c(OC)c(N2CCN(CCCCNC(=O)c3cc4ccccc4o3)CC2)c1` [Compound 30, N-(4-(4-(3-Chloro-5-ethyl-2-methoxyphenyl)piperazin-1-yl)butyl)benzofuran-2-carboxamide] the same measures were 5.2, 224 and above 6.6 µM.
Regarding `CCc1cc(Cl)c(OC)c(N2CCN(CC(O)CCNC(=O)c3cc4ccccc4o3)CC2)c1` (stereo not drawn) [Compound 31, N-(4-(4-(3-Chloro-5-ethyl-2-methoxyphenyl)piperazin-1-yl)-3-hydroxybutyl)benzofuran-2-carboxamide], the D4/D2 at human D2R is listed as 3.3. The D4/D3 on human D3R is 146.
Consider `CCc1cccc(N2CCN(C/C=C/CNC(=O)c3nc(C)c[nH]3)CC2)c1Cl` [Compound 35, (E)-N-(4-(4-(2-Chloro-3-ethylphenyl)piperazin-1-yl)but-2-en-1-yl)-4-methyl-1H-imidazole-2-carboxamide], for which the D4/D2 at human D2R was 31.2. For the same compound, the D4/D3 at human D3R is reported as 393.
With `CCc1cccc(N2CCN(CCC(O)CNC(=O)c3cc4ccccc4[nH]3)CC2)c1Cl` (stereo not drawn) [Compound 40, N-(4-(4-(2-Chloro-3-ethylphenyl)piperazin-1-yl)-2-hydroxybutyl)-1H-indole-2-carboxamide], the D4/D2 at human D2R was found to be 44.7. For the same compound, the D4/D3 at human D3R was 1525.

The values above are taken from patent US12162861B2, “Dopamine D3 receptor selective antagonists/partial agonists; method of making; and use thereof” (THE UNITED STATES OF AMERICA, AS REPRESENTED BY THE …, priority 2016, dated 2024).
